According to patent publication US9113629B2, “4-amino-6-(4-substituted-phenyl)-picolinates and 6-amino-2-(4-substituted-phenyl)-pyrimidine-4-carboxylates and their use as herbicides” (DOW AGROSCIENCES LLC, priority 2013, dated 2015):

What was measured:
[1] = system: KCHSC: kochia (Kochia scoparia); test: Post-emergent Test III, herbicidal activity in wheat and barley; format: in vivo; conditions: for GR50 KCHSC: dose for 50 percent growth reduction; for GR50 KCHSC / GR80 KCHSC: probit analysis; for GR80 KCHSC: dose for 80 percent growth reduction
Procedure, shortened: (§1)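 Plants at the second to third true-leaf stage, grown in a greenhouse at about 18/17 °C with a 14 h photoperiod, were sprayed post-emergence at 187 L/ha with the high rate and ½× to 1/16× serial dilutions in an acetone/DMSO/crop-oil/surfactant carrier. Injury was rated visually at 21 d on a 0–100% scale, and GR20–GR90 were derived by probit analysis.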

[2] = system: APESV: bentgrass (Apera spica-venti); test: as above; format: in vivo; conditions: Table 9, 21 d
Procedure, shortened: as §1

[3] = system: LOLSS: ryegrass including, Italian ryegrass (Lolium multiflorum), rigid ryegrass (Lolium rigidum), annual ryegrass (Lolium multiflorum subsp. Gaudini); test: as above; format: in vivo; conditions: Table 9, probit analysis, 21 d
Procedure, shortened: as §1

[4] = system: TRZSS: wheat, including spring and winter (Triticum aestivum); test: as above; format: in vivo; conditions: for GR20 TRZSS: probit analysis
Procedure, shortened: as §1

[5] = as above; format: in vivo, Lolium multiflorum, Lolium rigidum; conditions: Lolium multiflorum, post-emergence, 504 h, Table 9, post-emergent, 21 d, read-out: Visual Growth Reduction (%) 21 Days After Application LOLSS
Procedure, shortened: as §1

[6] = system: HORSS: barley, including spring and winter (Hordeum vulgare); test: as above; format: in vivo; conditions: for GR20 HORSS: probit analysis
Procedure, shortened: as §1

[7] = system: SASKR: Russian thistle (Salsola iberica); test: as above; format: in vivo; conditions: 21 days after application
Procedure, shortened: as §1

[8] = system: VIOSS: wild pansy (Viola tricolor), field violet (Viola arvensis); test: as above; format: in vivo; conditions: 21 days after application
Procedure, shortened: as §1

[9] = system: VERPE: bird's-eye speedwell (veronica persica); test: as above; format: in vivo; conditions: 21 days after application
Procedure, shortened: as §1

[10] = system: MATSS: scented mayweed (Matricaria chamomilla), pineappleweed (Matricaria matricarioides); test: as above; format: in vivo; conditions: 21 days after application
Procedure, shortened: as §1

[11] = Table 9, dose for 20 percent growth reduction, 21 d
[12] = probit analysis, dose for 50 percent growth reduction
[13] = probit analysis, dose for 80 percent growth reduction
[14] = dose for 20 percent growth reduction (crop), 21 days after application

C#Cc1ccc(-c2nc(N)c(OC)c(C(=O)O)n2)cc1 [Compound 28]
pest or weed control at 35 g/ha ([1]; Bassia scoparia, post-emergence, 504 h, Table 9, 35 g ai/ha, post-emergent, 21 d, read-out: Visual Growth Reduction (%) 21 Days After Application KCHSC): 0 to 29%
pest or weed control at 70 g/ha ([1]; Bassia scoparia, post-emergence, 504 h, Table 9, 70 g ai/ha, post-emergent, 21 d, read-out: Visual Growth Reduction (%) 21 Days After Application KCHSC): 30 to 44%
GR50 KCHSC ([1]; Table 9, 21 d): 88 g ai/ha
GR80 KCHSC ([1]; Table 9, 21 d): >140 g ai/ha
pest or weed control at 35 g/ha ([2]; Apera spica-venti, post-emergence, 504 h, 35 g ai/ha, post-emergent, read-out: Visual Growth Reduction (%) 21 Days After Application APESV): 0 to 29%
pest or weed control at 70 g/ha ([2]; Apera spica-venti, post-emergence, 504 h, 70 g ai/ha, post-emergent, read-out: Visual Growth Reduction (%) 21 Days After Application APESV): 0 to 29%
GR50 APESV ([2]; dose for 50 percent growth reduction, probit analysis): >140 g ai/ha
GR80 APESV ([2]; dose for 80 percent growth reduction, probit analysis): >140 g ai/ha
GR50 LOLSS ([3]; dose for 50 percent growth reduction): >140 g ai/ha
GR80 LOLSS ([3]; dose for 80 percent growth reduction): >140 g ai/ha
GR20 TRZSS [4, 11]: 17 g ai/ha
pest or weed control at 35 g/ha ([4]; Triticum aestivum, post-emergence, 504 h, Table 9, 35 g ai/ha, post-emergent, 21 d, read-out: Visual Growth Reduction (%) 21 Days After Application TRZSS): 30 to 44%
pest or weed control at 70 g/ha ([4]; Triticum aestivum, post-emergence, 504 h, Table 9, 70 g ai/ha, post-emergent, 21 d, read-out: Visual Growth Reduction (%) 21 Days After Application TRZSS): 60 to 74%
pest or weed control at 35 g/ha ([5]; 35 g ai/ha): 0 to 29%
pest or weed control at 70 g/ha ([5]; 70 g ai/ha): 0 to 29%
pest or weed control at 35 g/ha ([6]; Hordeum vulgare, post-emergence, 504 h, Table 9, 35 g ai/ha, post-emergent, 21 d, read-out: Visual Growth Reduction (%) 21 Days After Application HORSS): 0 to 29%
pest or weed control at 70 g/ha ([6]; Hordeum vulgare, post-emergence, 504 h, Table 9, 70 g ai/ha, post-emergent, 21 d, read-out: Visual Growth Reduction (%) 21 Days After Application HORSS): 30 to 44%
GR20 HORSS [6, 11]: 43 g ai/ha

Nc1c(F)c(-c2ccc(I)cc2F)nc(C(=O)O)c1Cl [Compound 169]
pest or weed control at 37.1 g/ha ([7]; Salsola tragus, post-emergence, 504 h, 37.1 g ai/ha, read-out: Visual Gorowth Reduction (%) 21 days After Application SASKR): 60 to 74%
pest or weed control at 74.3 g/ha ([7]; Salsola tragus, post-emergence, 504 h, 74.3 g ai/ha, read-out: Visual Gorowth Reduction (%) 21 days After Application SASKR): 75 to 84%
pest or weed control at 149 g/ha ([7]; Salsola tragus, post-emergence, 504 h, 149 g ai/ha, read-out: Visual Gorowth Reduction (%) 21 days After Application SASKR): 85 to 94%
GR50 SASKR [7, 12]: 5 g ai/ha
GR80 SASKR [7, 13]: 83 g ai/ha
pest or weed control at 37.1 g/ha ([8]; Viola tricolor, post-emergence, 504 h, 37.1 g ai/ha, read-out: Visual Gorowth Reduction (%) 21 days After Application VIOSS): 75 to 84%
pest or weed control at 74.3 g/ha ([8]; Viola tricolor, post-emergence, 504 h, 74.3 g ai/ha, read-out: Visual Gorowth Reduction (%) 21 days After Application VIOSS): 95 to 100%
pest or weed control at 149 g/ha ([8]; Viola tricolor, post-emergence, 504 h, 149 g ai/ha, read-out: Visual Gorowth Reduction (%) 21 days After Application VIOSS): 95 to 100%
GR50 VIOSS [8, 12]: 21 g ai/ha
GR80 VIOSS [8, 13]: 36 g ai/ha
pest or weed control at 37.1 g/ha ([1]; Bassia scoparia, post-emergence, 504 h, 37.1 g ai/ha, 21 days after application, read-out: Visual Gorowth Reduction (%) 21 days After Application KCHSC): 60 to 74%
pest or weed control at 74.3 g/ha ([1]; Bassia scoparia, post-emergence, 504 h, 74.3 g ai/ha, 21 days after application, read-out: Visual Gorowth Reduction (%) 21 days After Application KCHSC): 85 to 94%
pest or weed control at 149 g/ha ([1]; Bassia scoparia, post-emergence, 504 h, 149 g ai/ha, 21 days after application, read-out: Visual Gorowth Reduction (%) 21 days After Application KCHSC): 85 to 94%
GR50 KCHSC ([1]; 21 days after application): 8 g ai/ha
GR80 KCHSC ([1]; 21 days after application): 72 g ai/ha
pest or weed control at 37.1 g/ha ([9]; Veronica persica, post-emergence, 504 h, 37.1 g ai/ha, read-out: Visual Gorowth Reduction (%) 21 days After Application VERPE): 85 to 94%
pest or weed control at 74.3 g/ha ([9]; Veronica persica, post-emergence, 504 h, 74.3 g ai/ha, read-out: Visual Gorowth Reduction (%) 21 days After Application VERPE): 95 to 100%
pest or weed control at 149 g/ha ([9]; Veronica persica, post-emergence, 504 h, 149 g ai/ha, read-out: Visual Gorowth Reduction (%) 21 days After Application VERPE): 95 to 100%
GR50 VERPE [9, 12]: 19 g ai/ha
GR80 VERPE [9, 13]: 37 g ai/ha
pest or weed control at 37.1 g/ha ([4]; Triticum aestivum, post-emergence, 504 h, 37.1 g ai/ha, 21 days after application, read-out: Visual Gorowth Reduction (%) 21 days After Application TRZSS): 75 to 84%
pest or weed control at 74.3 g/ha ([4]; Triticum aestivum, post-emergence, 504 h, 74.3 g ai/ha, 21 days after application, read-out: Visual Gorowth Reduction (%) 21 days After Application TRZSS): 85 to 94%
pest or weed control at 149 g/ha ([4]; Triticum aestivum, post-emergence, 504 h, 149 g ai/ha, 21 days after application, read-out: Visual Gorowth Reduction (%) 21 days After Application TRZSS): 85 to 94%
GR20 TRZSS [4, 14]: 1 g ai/ha
pest or weed control at 37.1 g/ha ([6]; Hordeum vulgare, post-emergence, 504 h, 37.1 g ai/ha, 21 days after application, read-out: Visual Gorowth Reduction (%) 21 days After Application HORSS): 95 to 100%
pest or weed control at 74.3 g/ha ([6]; Hordeum vulgare, post-emergence, 504 h, 74.3 g ai/ha, 21 days after application, read-out: Visual Gorowth Reduction (%) 21 days After Application HORSS): 95 to 100%
pest or weed control at 149 g/ha ([6]; Hordeum vulgare, post-emergence, 504 h, 149 g ai/ha, 21 days after application, read-out: Visual Gorowth Reduction (%) 21 days After Application HORSS): 95 to 100%
GR20 HORSS [6, 14]: 1 g ai/ha
pest or weed control at 37.1 g/ha ([10]; Matricaria chamomilla, post-emergence, 504 h, 37.1 g ai/ha, read-out: Visual Gorowth Reduction (%) 21 days After Application MATSS): 75 to 84%
pest or weed control at 74.3 g/ha ([10]; Matricaria chamomilla, post-emergence, 504 h, 74.3 g ai/ha, read-out: Visual Gorowth Reduction (%) 21 days After Application MATSS): 95 to 100%
pest or weed control at 149 g/ha ([10]; Matricaria chamomilla, post-emergence, 504 h, 149 g ai/ha, read-out: Visual Gorowth Reduction (%) 21 days After Application MATSS): 95 to 100%
GR50 MATSS [10, 12]: 15 g ai/ha
GR80 MATSS [10, 13]: 35 g ai/ha
